Data as given in patent US12102616B2, “Psilocin mucate” (LOBE SCIENCES LTD., priority 2022, dated 2024).
Values joined by “and” are separate entries in the source; they are usually repeats but may differ in a detail not shown here. Equal entries are not always repeated. “Also recorded” adds a separate entry of the source. Where two headings read alike, the source gives them in different places.

Columns and labels:
[1] = Stability studies on psilocin mucate capsule over a 12 month period; assay type: physicochemical; settings: for Appearance POL-0018, Product / Assay TM-22-0392 (% Label Claim) / Total Impurities / Water Content by cKF TM-22-0012, Mean (2) / Water Content by cKF TM-22-0012, Prep 1 and 2 / Impurities TM-22-0392 (individual impurities): capsules
Description: Additional stability studies were performed on psilocin mutate (also known as psilocin mucic acid salt or conjugate or psilocin galactaric acid salt or conjugate) capsule over a 12 month period.
Appearance was evaluated by viewing of the sample on a watchglass over a black and white background.
Assay conditions for Test/Method TM-022-0392 assessing stability and impurities were as follows: • Mobile phase: MPA: 945 mL water, 5 mL H3PO4, pH to 5.7 with NaOH; MPB: Acetonitrile • Diluent: 80:20 Water:MeOH • Standard: 0.4 mg/mL Psilocin Mucic RS in Diluent • Sample: 0.4 mg/mL Psilocin Mucic API in Diluent • HPLC Conditions are depicted in Table 3.
• System suit: RSD NMT 2.0% (5 injections), Tailing NMT 2.0, Plate count NLT 10000
Calculations were against a bracketing external standard.
Identity of psilocin mucate was verified by ultraviolet (UV) assessment, wherein the UV spectrum of the main peak in the standard matched the UV spectrum of the main peak in the sample and by retention time wherein the retention time ratio was 0.98-1.02.

healthy subjects = test: Mood assessment, MMSE test and adverse events in the phase one study
[2] = Phase one single-dose pharmacokinetic study of capsules containing psilocin mucic acid conjugate (plasma psilocin)
Swiss Albino Mice = test: 28-day oral (gavage) toxicity study with 14-day recovery
[3] = cited from earlier work; for AUC / Tmax / Cmax: psilocin
[4] = Usona's investigator's brochure; cited from earlier work
[5] = single oral dose equivalent to 2 mg psilocin
[6] = plasma psilocin, 2 mg p.o. PM fasted
[7] = 2, 10 and 20 mg/kg bw/day oral, 28 days
[8] = females G4R vs G1R, considered not related
[9] = males G4R vs G1R, considered not related
[10] = 0.224 mg/kg p.o. PY fasted by Hasler

CN(C)CCc1c[nH]c2cccc(O)c12.O=C(O)[C@@H](O)[C@H](O)[C@H](O)[C@@H](O)C(=O)O [psilocin mucate]
stable for (duration of stability) [1]: at least 12 months
Appearance POL-0018, Product ([1]; 1 Month): Conforms
Assay TM-22-0392 (% Label Claim) ([1]; 1 Month): 98.8%
Total Impurities ([1]; 1 Month): 0.05%
Water Content by cKF TM-22-0012, Mean (2) ([1]; 1 Month): 0.9 % w/w
Water Content by cKF TM-22-0012, Prep 1 and 2 ([1]; 1 Month): 0.9 % w/w and 0.8 % w/w
Impurities TM-22-0392 (individual impurities) ([1]; 1 Month, impurity at RRT 1.11): RRT 1.11/0.05%
Appearance POL-0018, Product ([1]; 3 Months): Conforms
Assay TM-22-0392 (% Label Claim) ([1]; 3 Months): 101.1%
Total Impurities ([1]; 3 Months): <0.05%
Water Content by cKF TM-22-0012, Mean (2) ([1]; 3 Months): 1.6 % w/w
Water Content by cKF TM-22-0012, Prep 1 and 2 ([1]; 3 Months): 2.0 % w/w and 1.1 % w/w
Impurities TM-22-0392 (individual impurities) ([1]; 3 Months, all impurities): All < 0.05%
Appearance POL-0018, Product ([1]; 5 Months): Conforms
Assay TM-22-0392 (% Label Claim) ([1]; 5 Months): 103.2%
Total Impurities ([1]; 5 Months): <0.05%
Water Content by cKF TM-22-0012, Mean (2) ([1]; 5 Months): 1.3 % w/w
Water Content by cKF TM-22-0012, Prep 1 and 2 ([1]; 5 Months): 1.2 % w/w and 1.3 % w/w
Impurities TM-22-0392 (individual impurities) ([1]; 5 Months, all impurities): All < 0.05%
Appearance POL-0018, Product ([1]; 6 Months): Conforms
Assay TM-22-0392 (% Label Claim) ([1]; 6 Months): 98.8%
Total Impurities ([1]; 6 Months): <0.05%
Water Content by cKF TM-22-0012, Mean (2) ([1]; 6 Months): 1.4 % w/w
Water Content by cKF TM-22-0012, Prep 1 and 2 ([1]; 6 Months): 1.4 % w/w
Impurities TM-22-0392 (individual impurities) ([1]; 6 Months, all impurities): All < 0.05%
Appearance POL-0018, Product ([1]; 12 Months): Conforms
Assay TM-22-0392 (% Label Claim) ([1]; 12 Months): 98.4%
Total Impurities ([1]; 12 Months): <0.05%
Water Content by cKF TM-22-0012, Mean (2) ([1]; 12 Months): 1.3 % w/w
Water Content by cKF TM-22-0012, Prep 1 and 2 ([1]; 12 Months): 1.2 % w/w and 1.3 % w/w
Impurities TM-22-0392 (individual impurities) ([1]; 12 Months, all impurities): All < 0.05%
Total Impurities ([1]; Initial): 0.08%
Water Content by cKF TM-22-0012, Mean (2) ([1]; Initial): 1.2 % w/w
Impurities TM-22-0392 (individual impurities) ([1]; Initial, impurity at RRT 1.12): RRT 1.12/0.08%
Assay TM-22-0392 (% Label Claim) ([1]; Initial, specification 90.0-110.0%): 98.8%
Water Content by cKF TM-22-0012, Prep 1 and 2 ([1]; Initial, specification NMT 10.0%): 1.1 % w/w and 1.2 % w/w
Appearance POL-0018, Product ([1]; Initial, specification white to light brown powder partially filling white opaque capsules): Conforms
FEELING STATUS (healthy subjects; individual subjects 01-10, single oral capsule, 2 mg psilocin equivalent, assessed by psychiatrist): Feel little beet happier, better; also recorded: Feel calm, less thoughts, happier; also recorded: Euphoric, better mood, it helps with; also recorded: Euphories, better mood, sleepy, feel; also recorded: Sleepy, better thoughts, less worried; also recorded: Did not feel change in mood but feeling; also recorded: More relaxed, want to drink sweet; also recorded: Better mood, feels hyper sexual; also recorded: Felt high mood, now they feel in good; also recorded: Less anxious, better mood, increase
MMSE (healthy subjects; individual subjects 01-10, single oral capsule, 2 mg psilocin equivalent, hallucinogenic substance expected to lower score below 25): 30 (3×) and 28 (3×) and 27 (2×) and 29 (2×)
adverse events: dizziness (healthy subjects; [5]): one subject reported slight and transient dizziness
serious adverse effects (healthy subjects; [5]): no serious adverse effects were reported
subjects with no hallucinogenic effect (healthy subjects; [5]): 9 of the 10
food effect upon oral administration ([2]; from comparison with published psilocybin studies): no food effect
Cmax as compared to an equal amount of psilocin generated by the metabolism of psilocybin ([2]; oral): higher Cmax
decrease in Tmax as compared to an equivalent formulation of psilocybin ([2]; oral): ≥ 2 fold
delivered concentrations of psilocin compared with intravenous psilocybin ([2]; oral formulation): equivalent to intravenous doses of psilocybin
patient-to-patient variability as compared to psilocybin treatment ([2]; oral formulation): decreased patient-to-patient variability
AUC [2, 6]: 11.189 μG H/L
Tmax [2, 6]: 45 min
Cmax ([2]; plasma psilocin, 2 mg p.o. PM fasted, psilocin dose 2 mg, 0.026 mg/kg p.o.): 3.66 ng/mL
time until psilocin is essentially eliminated from circulation ([2]; single oral capsule, 2 mg psilocin equivalent): less than 12 hours
Functional observation battery (Swiss Albino Mice; [7]): No treatment related effects were observed
Mortality and morbidity check (Swiss Albino Mice; [7]): No mortality or morbidity was observed at any dose level
effects on general health, body weight, feed consumption, clinical pathology, gross pathology and histopathology (Swiss Albino Mice; 28 consecutive days, both sexes): no psilocin mucate related effects
Histopathology, overall (Swiss Albino Mice; G1 and G4 main group organs/tissues): no psilocin mucate related histopathological changes
histopathological lesions (background findings) (Swiss Albino Mice; G4 female, considered toxicologically irrelevant): single incidence of cortical cyst (unilateral) in kidneys; also recorded: presence of luteal cyst (unilateral) in ovaries
AChE (Swiss Albino Mice; G4 male and G3 female animals vs vehicle control, considered non-psilocin mucate related): statistically significant increase
body weight gain (Swiss Albino Mice; G4 males (20 mg/kg bw/day), day 1-8, vs control, not considered adverse): statistically significant decrease
net body weight gain (day 1 to day 43) (Swiss Albino Mice; G4 recovery females vs control, not due to treatment): statistically significant increase
foot splay measurement (Swiss Albino Mice; G4 recovery group females (20 mg/kg bw/day), last day of recovery, vs control, considered random biological variation): statistically significant increase
Gross pathology (Swiss Albino Mice; all groups, both sexes): No gross changes were observed
Clinical chemistry parameters, overall (Swiss Albino Mice; both sexes): No psilocin mucate related changes were observed
Hematology parameters, overall (Swiss Albino Mice; both sexes): No psilocin mucate related changes were observed
Coagulation parameters (Swiss Albino Mice; both sexes, main and recovery group): No statistically significant changes were observed
total bile acids (Swiss Albino Mice; females G3 and G4 vs G1, considered not related): statistically significant increase
aspartate aminotransferase and inorganic phosphorous (Swiss Albino Mice; [8]): decrease
creatinine, total protein, albumin and calcium (Swiss Albino Mice; [8]): increase
mean corpuscular hemoglobin (Swiss Albino Mice; [8]): increase
relative adrenals and brain weight (Swiss Albino Mice; [8]): decrease
absolute and relative thymus weight (Swiss Albino Mice; females G4 vs G1, considered not related): statistically significant increase
white blood cells and platelets (Swiss Albino Mice; females G4 vs vehicle control, considered not related): statistically significant increase
Ophthalmological examination (Swiss Albino Mice; main and recovery group animals): No ocular abnormalities were observed
relative eosinophil count (Swiss Albino Mice; males G2 and G4 vs vehicle control G1, considered not related): statistically significant decrease
chloride (Swiss Albino Mice; males G3 vs G1, considered not related): decrease
absolute and relative lungs weight and absolute prostate with seminal vesicles and coagulating gland weight (Swiss Albino Mice; [9]): statistically significant decrease
red blood cells and hemoglobin (Swiss Albino Mice; [9]): statistically significant increase
reticulocytes (Swiss Albino Mice; [9]): decrease
inorganic phosphorous (Swiss Albino Mice; males G4 vs vehicle control, considered not related): statistically significant increase
feed consumption (Swiss Albino Mice; males, G4 recovery group, day 29-36, vs control, considered incidental): statistically significant increase
Acetyl cholinesterase (AChE) level, overall (Swiss Albino Mice; mouse, in vivo): No psilocin mucate related changes were observed
NOAEL translated to a dose for an average person of 70 kg (Swiss Albino Mice; mouse, in vivo): 1,400 mg
Urinalysis parameters, overall (Swiss Albino Mice; mouse, in vivo): No psilocin mucate related changes were observed
NOAEL (Swiss Albino Mice; oral gavage, 28 consecutive days): 20 mg/kg bw/day
urine pH (Swiss Albino Mice; recovery female group (G4R) vs vehicle control recovery group, considered not related): statistically significant decrease
Clinical signs and detailed clinical signs observation (Swiss Albino Mice; treatment and recovery period): No clinical signs of toxicity were observed

CN(C)CCc1c[nH]c2cccc(OP(=O)(O)O)c12 [psilocybin]
AUC [3, 10]: 32.71 μG H/L
Tmax [3, 10]: 105 min
Cmax ([3]; 0.224 mg/kg p.o. PY fasted by Hasler, psilocin dose 0.161 mg/kg p.o.): 8.2 ng/mL
AUC ([3]; 1 mg i.v. PY by Hasler): 4 μG H/L
Tmax ([3]; 1 mg i.v. PY by Hasler): 1.9 min
Cmax ([3]; 1 mg i.v. PY by Hasler, psilocin dose 0.718 mg, 0.01 mg/kg i.v.): 12.9 ng/mL
AUC ([3]; 25 mg p.o. PY fasted by Holze): 83 μG H/L
Tmax ([3]; 25 mg p.o. PY fasted by Holze): 114 min
Cmax ([3]; 25 mg p.o. PY fasted by Holze, psilocin dose 17.95 mg, 0.256 mg/kg): 17 ng/mL
bioavailability, generally reported ([3]; varies from paper to paper): 50-80%
lethal dose 50% (LD50) [4]: 285 mg/kg
